What all share (format): cell-based
Assay [1] deals with A549. As to the kind of experiment: Cytotoxic assay, sulforhodamine B (SRB), A549. As to conditions: Homo sapiens; A549 cells, 48 hours exposure, SRB method. The source says:
(§1) A colorimetric type of assay, using sulforhodamine B (SRB) reaction has been adapted for a quantitative measurement of cell growth and viability (following the technique described by Skehan P et al. J. Natl. Cancer Inst. 1990, 82, 1107-1112).
(§2) This form of assay employs 96-well cell culture microplates of 9 mm diameter (Faircloth et al. Methods in cell science, 1988, 11(4), 201-205; Mosmann et al, Journal of. Immunological. Methods, 1983, 65(1-2), 55-63). Most of the cell lines are obtained from American Type Culture Collection (ATCC) derived from different human cancer types. Cells are maintained in RPMI 1640 10% FBS, supplemented with 0.1 g/L penicillin and 0.1 g/l streptomycin sulfate and then incubated at 37° C., 5% CO2 and 98% humidity. For the experiments, cells were harvested from subconfluent cultures using trypsin and resuspended in fresh medium before counting and plating.
(§3) Cells were seeded in 96 well microtiter plates at 5×10^3 cells per well in aliquots of 195 μL medium, and allowed to attach to the plate surface for 18 hours in drug free medium. Afterwards, samples are in aliquots of 5 μL in a ranging from 10 to 10-8 μg/mL dissolved in DMSO/ETOH (0.2% in PS buffer). After 48 hours exposure, the antitumor effect are measured by the SRB method: cells are fixed by adding 50 μL of cold 50% (w/v) trichloroacetic acid and incubating for 60 minutes at 4° C. Plates are washed with deionised water and dried. 100 μL of SRB solution (0.4% w/v in 1% acetic acid) is added to each microtiter well and incubated for 10 minutes at room temperature. Unbound SRB is removed by washing with 1% acetic acid. Plates are air-dried and bound stain is solubilized with Tris Buffer. Optical densities are read on an automated spectrophotometric plate reader at a single wavelength of 490 nm.
(§4) The values for mean ±SD of data from triplicate wells are calculated. GI50 (concentration that produces 50% growth inhibition) parameter was calculated (NCI algorithm) by automatic interpolation.
Background: In SRB staining, fixed cells bind dye roughly in proportion to their protein.

Assay [2] relates to HT29. As to the kind of experiment: Cytotoxic assay, sulforhodamine B (SRB), HT29. As to conditions: Homo sapiens, HT-29; HT29 cells, 48 hours exposure, SRB method.
Excerpt: as §1, §2, §3, §4

Assay [3] relates to MEL-28. Nature of the assay: Cytotoxic assay, sulforhodamine B (SRB), MEL-28. As to conditions: Homo sapiens, SK-MEL-28; MEL-28 cells, 48 hours exposure, SRB method.
Excerpt: as §1, §2, §3, §4

Assay [4] concerns DU-14S. Nature of the assay: Cytotoxic assay, sulforhodamine B (SRB), DU-14S. Particulars: Homo sapiens; DU-14S cells, 48 hours exposure, SRB method.
Excerpt: as §1, §2, §3, §4

Assay [5] relates to P-388 (suspension culture of a lymphoid neoplasm from DBA/2 mouse). Nature of the assay: Cytotoxic activity screening, P-388 cells. As to conditions: three days of incubation, approximate IC50 vs control growth; for IC50: Mus musculus, P388, 72 h. An outline of the steps: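 P-388 murine lymphoid cells seeded at 1×10^4 cells/well in MEM with 5% FCS containing drug at the stated concentrations, run in duplicate. Untreated wells served as growth controls to confirm exponential growth.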

The test system of assay [6] is A-549 (monolayer culture of a human lung carcinoma). As to the kind of experiment: Cytotoxic activity screening, A-549 cells. As to conditions: three days of incubation, Crystal Violet; for IC50: Homo sapiens, A549, 72 h, approximate IC50.
Assay [7] relates to HT-29 (monolayer culture of a human colon carcinoma). As to the kind of experiment: Cytotoxic activity screening, HT-29 cells. Particulars: three days of incubation, Crystal Violet; for IC50: Homo sapiens, HT-29, 72 h, approximate IC50.
The subject of assay [8] is MEL-28 (monolayer culture of a human melanoma). As to the kind of experiment: Cytotoxic activity screening, MEL-28 cells. Particulars: three days of incubation, Crystal Violet; for IC50: Homo sapiens, SK-MEL-28, 72 h, approximate IC50. Summed up: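 Human monolayer lines seeded at 2×10^4 cells/well in MEM with 10% FCS containing drug, in duplicate. After 3 days at 37° C, 10% CO2, wells stained with 0.1% Crystal Violet. Approximate IC50 estimated from growth versus drug-free controls.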

Assay [9] has as its system DU-145. As to the kind of experiment: Cytotoxic activity screening, DU-145 cells. As to conditions: for IC50: Homo sapiens, DU-145, DU-145 cells.
Setting [10] is: approximate IC50, listed as 18a*.

SMILES strings stand for the structures. In brackets after ≈: the same amount, converted by molar mass.

As a reminder, the GI50 is the concentration at which growth is held to half of that of the control. A lower GI50 goes with more potent growth inhibition. The IC50 is the midpoint of a concentration-inhibition curve. Read a high IC50 as weaker potency in that assay.

As to `COc1c(C)cc2c(c1O)[C@@H]1[C@@H]3[C@@H]4SC[C@H](NC(=O)c5cc6ccccc6oc5=O)C(=O)OC[C@@H](c5c6c(c(C)c(OC(C)=O)c54)OCO6)N3[C@@H](C#N)[C@H](C2)N1C` [Compound 15a], the GI50 in assay [1] came to 2.83 nM; in assay [2] it was 4.38 nM; in assay [3], 3.23 nM; in assay [4], 4.38 nM.

Turning to `COc1c(C)cc2c(c1O)[C@@H]1[C@@H]3[C@@H]4SC[C@H](NC(=O)[C@@H]5CCCN5C(=O)OC(C)(C)C)C(=O)OC[C@@H](c5c6c(c(C)c(OC(C)=O)c54)OCO6)N3[C@@H](C#N)[C@H](C2)N1C` [Compound 15b], the results for the GI50 in assay [1] and in assay [2] were 7.32 nM and 3.66 nM, respectively.

For `COc1c(C)cc2c(c1O)[C@@H]1[C@@H]3[C@@H]4SC[C@H](NC(=O)c5cccnc5Cl)C(=O)OC[C@@H](c5c6c(c(C)c(OC(C)=O)c54)OCO6)N3[C@@H](C#N)[C@H](C2)N1C` [Compound 15c], the GI50 was 1.8 nM in assay [1], 2.93 nM in assay [2], 1.21 nM in assay [3] and 0.468 nM in assay [4].

For `COc1c(C)cc2c(c1O)[C@@H]1[C@@H]3[C@@H]4SC[C@H](NC(=O)c5cnn(-c6ccccc6)c5C(F)(F)F)C(=O)OC[C@@H](c5c6c(c(C)c(OC(C)=O)c54)OCO6)N3[C@@H](C#N)[C@H](C2)N1C` [Compound 15d], the figures for the GI50 in assay [1] and in assay [2] were 14.6 nM and 10.1 nM, respectively.

With `COc1c(C)cc2c(c1O)[C@@H]1[C@@H]3[C@@H]4SC[C@H](NC(=O)c5cc(C)on5)C(=O)OC[C@@H](c5c6c(c(C)c(OC(C)=O)c54)OCO6)N3[C@@H](C#N)[C@H](C2)N1C` [Compound 15e], the GI50 in [1] was determined as 5.77 nM; in [2], 5.36 nM; in assay [3], 2.58 nM; in [4], 3.84 nM.

Take `COc1c(C)cc2c(c1O)[C@@H]1[C@@H]3[C@@H]4SC[C@H](NC(=O)[C@@H]5CCCN5)C(=O)OC[C@@H](c5c6c(c(C)c(OC(C)=O)c54)OCO6)N3[C@@H](C#N)[C@H](C2)N1C` [Compound 15f]: the figures for the GI50 in [1] and in [2] were 2.78 nM and 0.278 nM, respectively.

On to `COc1c(C)cc2c(c1O)[C@@H]1[C@@H]3[C@@H]4SC[C@H](NC(=O)c5cc6ccccc6oc5=O)C(=O)OC[C@@H](c5c6c(c(C)c(OC(C)=O)c54)OCO6)N3[C@@H](O)[C@H](C2)N1C` [Compound 16a], for which the GI50 in [1] is 2.94 nM; in [2] it was 3.94 nM; in assay [3] it was 3.02 nM; in [4], 4.73 nM.

As for `COc1c(C)cc2c(c1O)[C@@H]1[C@@H]3[C@@H]4SC[C@H](NC(=O)[C@@H]5CCCN5C(=O)OC(C)(C)C)C(=O)OC[C@@H](c5c6c(c(C)c(OC(C)=O)c54)OCO6)N3[C@@H](O)[C@H](C2)N1C` [Compound 16b], the GI50 in [1] was found to be 1.23 nM; in [2] it was 1.23 nM; in [3], 1.11 nM; in [4], 0.37 nM.

Consider `COc1c(C)cc2c(c1O)[C@@H]1[C@@H]3[C@@H]4SC[C@H](NC(=O)[C@@H]5CCCN5)C(=O)OC[C@@H](c5c6c(c(C)c(OC(C)=O)c54)OCO6)N3[C@@H](O)[C@H](C2)N1C` [Compound 16c], for which the GI50 stood at 5.63 nM in assay [1], 0.0422 nM in assay [2], 0.281 nM in assay [3] and 1.13 nM in [4].

With `COc1c(C)cc2c(c1O)[C@@H]1[C@@H]3[C@@H]4SC[C@H](NC(=O)c5cccnc5Cl)C(=O)OC[C@@H](c5c6c(c(C)c(OC(C)=O)c54)OCO6)N3[C@@H](O)[C@H](C2)N1C` [Compound 16d], the GI50 was found to be 1330 nM in assay [1], 13300 nM in [2], 2.5 nM in [3] and 2.16 nM in assay [4].

With `COc1c(C)cc2c(c1O)[C@@H]1[C@@H]3[C@@H]4SC[C@H](NC(=O)c5cnn(-c6ccccc6)c5C(F)(F)F)C(=O)OC[C@@H](c5c6c(c(C)c(OC(C)=O)c54)OCO6)N3[C@@H](O)[C@H](C2)N1C` [Compound 16e], the GI50 in assay [1] was 35.1 nM; in assay [2], 38.6 nM; in assay [3], 29.8 nM; in assay [4], 27.2 nM.

Turning to `COc1c(C)cc2c(c1O)[C@@H]1C3[C@@H]4SC[C@H](OC(=O)/C=C/c5ccccc5)C(=O)OC[C@@H](c5c6c(c(C)c(OC(C)=O)c54)OCO6)N3[C@@H](C#N)[C@H](C2)N1C` (stereo partly drawn) [Compound 17h], the IC50 in assay [5], in assay [6], in [7], in assay [8] and in [9] was 0.1 ng/mL (≈ 0.133 nM) throughout.

With `COc1c(C)cc2c(c1O)[C@@H]1C3[C@@H]4SC[C@@H](OC(C)=O)C(=O)OC[C@@H](c5c6c(c(C)c(OC(C)=O)c54)OCO6)N3[C@@H](C#N)[C@H](C2)N1C` (stereo partly drawn) [Compound 18a*], the “IC50 P-388” value in assay [5] (listed as 18a*) is 1.0 ng/mL (≈ 1.5 nM). The “IC50 A-549” value in assay [6] (setting [10]) worked out at 1.0 ng/mL (≈ 1.5 nM). Also, in [7] (setting [10]), the “IC50 HT-29” value came out at 1.0 ng/mL (≈ 1.5 nM). The “IC50 MEL-28” value in assay [8] (setting [10]) is given as 1.0 ng/mL (≈ 1.5 nM). Moreover, in assay [9] (DU-145 cells, listed as 18a*), the “IC50 DU-145” value came out at 1.0 ng/mL (≈ 1.5 nM).

Take `COc1c(C)cc2c(c1O)[C@@H]1C3[C@@H]4SC[C@H](O)C(=O)OC[C@@H](c5c6c(c(C)c(OC(C)=O)c54)OCO6)N3[C@@H](O)[C@H](C2)N1C` (stereo partly drawn) [Compound 19]: the IC50 in assay [5], in assay [6], in [7], in assay [8] and in [9] was 1 ng/mL (≈ 1.63 nM) in each case.

In the case of `COc1c(C)cc2c(c1O)[C@@H]1C3[C@@H]4SC[C@@H](OC(C)=O)C(=O)OC[C@@H](c5c6c(c(C)c(OC(C)=O)c54)OCO6)N3[C@@H](O)[C@H](C2)N1C` (stereo partly drawn) [Compound 21a], the IC50 in [5] came out at 0.5 ng/mL (≈ 0.761 nM); in [6], 1 ng/mL (≈ 1.52 nM); in [7], 1 ng/mL (≈ 1.52 nM); in assay [8], 1 ng/mL (≈ 1.52 nM); in [9], 1 ng/mL (≈ 1.52 nM).

Consider `CCCC(=O)O[C@H]1CS[C@@H]2c3c(OC(C)=O)c(C)c4c(c3[C@H](COC1=O)N1C2[C@H]2c3c(cc(C)c(OC)c3O)C[C@@H]([C@@H]1O)N2C)OCO4` (stereo partly drawn) [Compound 21c], for which the IC50 in assay [5], in assay [6], in assay [7], in [8] and in [9] was 1 ng/mL (≈ 1.46 nM) each time.

As for `CCCCCCCC(=O)O[C@H]1CS[C@@H]2c3c(OC(C)=O)c(C)c4c(c3[C@H](COC1=O)N1C2[C@H]2c3c(cc(C)c(OC)c3O)C[C@@H]([C@@H]1O)N2C)OCO4` (stereo partly drawn) [Compound 21e], the IC50 in assay [5], in [6], in assay [7], in [8] and in [9] was 1 ng/mL (≈ 1.35 nM) in each case.

With `COc1c(C)cc2c(c1O)[C@@H]1C3[C@@H]4SC[C@H](OC(=O)/C=C/c5ccccc5)C(=O)OC[C@@H](c5c6c(c(C)c(OC(C)=O)c54)OCO6)N3[C@@H](O)[C@H](C2)N1C` (stereo partly drawn) [Compound 21h], the IC50 in assay [5], in assay [6], in assay [7], in assay [8] and in assay [9] was 1 ng/mL (≈ 1.34 nM) throughout.

For the compound `COc1c(C)cc2c(c1O)[C@@H]1C3[C@@H]4SC[C@H](OS(C)(=O)=O)C(=O)OC[C@@H](c5c6c(c(C)c(OC(C)=O)c54)OCO6)N3[C@@H](O)[C@H](C2)N1C` (stereo partly drawn) [Compound 21ll], the IC50 in assay [5], in assay [6], in assay [7], in assay [8] and in [9] was 1 ng/mL (≈ 1.44 nM) each time.

The values above are taken from patent US7919493B2, “Anititumoral ecteinascidin derivatives” (Pharma Mar, S.A., priority 2001, dated 2011).
